In US10960020B2, “Modulation of PCSK9 and LDLR through DRP1 inhibition” (THE BRIGHAM AND WOMEN'S HOSPITAL, INC., priority 2016, dated 2021):

Tested on: PCSK9 secretion
Test: SILAC mass spectrometry of HepG2 secreted proteins: PCSK9
Assay type: cell-based, human
Conditions: HepG2, Mdivi-1 50 μM, 24 hours, vs vehicle
Procedure: To assess DRP1 involvement in protein secretion, secretome changes were quantified using stable isotope labeling by amino acids in cell culture (SILAC).
HepG2 cells were cultured on 100 mm dishes at a confluency of ˜60-70%. […] Media was prepared with DMEM (no lysine, no arginine; A14431-01, Thermo Fisher Scientific) to which L-glutamine (2 mM, Lonza, Walkersville, Md.), L-arginine HCl (0.17 mM; Sigma), either light L-lysine HCl (0.339 mM; Sigma) or heavy L-lysine 2HCl (0.339 mM; Cambridge Isotopes, Tewksbury, Mass.), 10% dialyzed FBS (Thermo Fisher Scientific), 1% pen/strep was added. Media was changed every two days, and cells were split as required. […]
The peptide sample was diluted [1/10-fold] and analyzed with the high resolution/accuracy Q Exactive™ mass spectrometer fronted with a Nanospray™ FLEX ion source, and coupled to an Easy-nLC1000 HPLC pump (Thermo Fisher Scientific). […] The peptide false discovery rate (FDR) was calculated using Percolator™ provided by Proteome Discoverer. […] Quantification of SILAC peak pairs was also done in Proteome Discoverer™ using up to the top three most abundant peptides. […] Significant changes were determined as proteins with an average value (ratio of Mdivi-1 treated/vehicle treated peak intensity) plus two standard deviations being less than the control value (vehicle treated/vehicle treated peak intensity=1). […]

## COc1cc(-n2c(S)nc3ccccc3c2=O)c(Cl)cc1Cl [Mdivi-1, 3-(2,4-Dichloro-5-methoxyphenyl)-2,3-dihydro-2-thioxo-4(1H)-quinazolinone]
  PCSK9 secretion reduction (SILAC): −74%
